From patent publication US20160030510A1, “METHODS OF TREATING ALZHEIMER'S DISEASE AND OTHER TAUOPATHIES WITH INHIBITORS OF MICROTUBULE AFFINITY REGULATING KINASE” (The Board of Trustees of the Leland Stanford Junior …, priority 2012, published 2016)
Where a SMILES comes first, the peptide text is derived from it.

Tests used:
[1] = test system: MARK4-mediated tau phosphorylation; experiment: Tau phosphorylation in brain of mouse PS19 transgenic tauopathy model (P301S mutant human tau); assay type: in vivo; settings: PS19 mice, IP 40 mg/kg/day for 5 days, FIG. 10
Procedure: Three PS19 transgenic mice (ID number: 9, 10, 11) were subjected to daily IP injection with MKI-TAT peptide (dissolved in 100% DMSO, 40 mg/kg/day) for 5 days. At the end of 5-day injection, the animals were anesthetized with 4% isoflurine and decapitated. The brain tissues were collected immediately, flash-frozen in liquid nitrogen and stored at −80° C. For analysis of effect of MKI-TAT on tau phosphorylation, brain tissues were homogenized in lysis buffer, separated on SDS-PAGE, and probed with the indicated antibodies.
Three PS19 transgenic mice (ID number: 9, 10, 11) were subjected to daily intraperitoneal injection with MKI-TAT peptide (dissolved in 100% DMSO, 40 mg/kg/day) for 5 days. At the end of the 5-day injection period, the animals were anesthetized with 4% isoflurine and decapitated. The brain tissues were collected immediately, flash-frozen in liquid nitrogen, and stored at −80° C. For analysis of the effects of MKI-TAT on tau phosphorylation, brain tissues were homogenized in lysis buffer, separated on SDS-PAGE, and probed with antibodies against pS262-tau, PHF-1, tau, and actin.

5×FAD mouse = experiment: Activity Chamber assay in 5×FAD Alzheimer's disease mouse model; assay type: in vivo; settings: 5×FAD mice, daily IP for 5 days, FIGS. 11A-11H
Excerpt: The 5×FAD mouse, a well-accepted transgenic model of Alzheimer's disease, was used to test the therapeutic efficacy of MKI-TAT in vivo. The 5×FAD model mouse overexpresses APP with the K670N/M671L (Swedish mutation), I716V (Florida mutation), and V717I (London mutation), and PS1 with the M146L and L286V mutations. […] These defects were rescued by the daily delivery of MKI-TAT through IP for 5 days. At the end of the 5 day treatment, the wild type animals treated with vehicle, and 5×FAD mice treated with vehicle or MKI-TAT were subjected to the Activity Chamber assay. Total ambulatory count (FIG. 11A), total stereotypic count (FIG. 11B), total vertical count (FIG. 11C), total session time (FIG. 11D), total ambulatory time (FIG. 11E), total stereotypic time (FIG. 11F), total vertical time (FIG. 11G), and total zone entry (FIG. 11H) were evaluated.
Activity Chamber assays were performed to evaluate the effects of MKI-TAT in rescuing motor behavioral defects in an Alzheimer's disease mouse model. The 5×FAD mouse, a well-accepted transgenic model of Alzheimer's disease, was used to test the therapeutic efficacy of MKI-TAT in vivo. The 5×FAD model mouse overexpresses APP with the K670N/M671L (Swedish mutation), I716V (Florida mutation), and V717I (London mutation), and PS1 with the M146L and L286V mutations. […]

Human MARK4 = target: T1, Human MARK4 (Homo sapiens, UniProt Q96L34); experiment: In vitro kinase assay of MARK4 phosphorylating tau (Western blot); assay type: biochemical; settings: human MARK4 and tau affinity-purified from HEK293 cells, FIG. 7
T1 construct: made in house; host or cells: HEK293 cells
T1 sequence (Q96L34 1-752): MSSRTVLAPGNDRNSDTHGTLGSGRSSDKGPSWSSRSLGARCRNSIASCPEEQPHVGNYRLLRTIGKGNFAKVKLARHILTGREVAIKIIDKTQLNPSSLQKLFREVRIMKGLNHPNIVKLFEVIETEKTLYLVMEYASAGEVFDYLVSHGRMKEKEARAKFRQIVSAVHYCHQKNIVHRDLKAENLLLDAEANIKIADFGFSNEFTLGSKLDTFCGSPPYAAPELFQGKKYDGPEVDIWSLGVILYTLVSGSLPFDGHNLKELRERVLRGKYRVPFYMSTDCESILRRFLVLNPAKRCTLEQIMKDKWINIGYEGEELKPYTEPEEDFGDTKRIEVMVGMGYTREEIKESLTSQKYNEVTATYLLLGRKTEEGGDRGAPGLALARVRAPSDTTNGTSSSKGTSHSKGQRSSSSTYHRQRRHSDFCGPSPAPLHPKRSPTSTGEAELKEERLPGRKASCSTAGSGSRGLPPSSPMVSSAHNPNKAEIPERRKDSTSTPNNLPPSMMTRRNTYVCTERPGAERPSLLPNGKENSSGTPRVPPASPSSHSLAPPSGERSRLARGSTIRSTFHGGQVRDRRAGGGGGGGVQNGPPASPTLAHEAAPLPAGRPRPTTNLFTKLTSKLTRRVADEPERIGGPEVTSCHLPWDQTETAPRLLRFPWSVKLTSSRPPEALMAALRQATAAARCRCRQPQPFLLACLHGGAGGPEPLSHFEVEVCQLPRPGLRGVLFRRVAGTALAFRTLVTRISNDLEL
Excerpt: Both human MARK4 and tau proteins were expressed in HEK293 cells and affinity-purified by immunoprecipitation. After in vitro kinase reaction in the presence or absence of the peptides, the reaction mixtures were separated on SDS-PAGE to separate the proteins, and the levels of total tau and phospho-tau generated by MARK4 were detected by Western blot analysis. The TAT peptide was used as a negative control. Note the inhibition of MARK4-mediated tau phosphorylation by both TAT-MKI and MKI-TAT.
We next tested the ability of the TAT-MKI and MKI-TAT fusions to inhibit the activity of MARK4 kinase in phosphorylating the tau protein (FIG. 7). Human MARK4 and tau proteins were expressed in HEK293 cells and affinity-purified by immunoprecipitation. In vitro kinase reactions were performed in the presence or absence of the TAT-MKI and MKI-TAT fusion peptides and the levels of total tau and phospho-tau generated by MARK4 were detected by Western blot analysis. The TAT peptide was used as a negative control. Both the TAT-MKI and MKI-TAT fusion peptides inhibited MARK4-mediated tau phosphorylation in vitro.

## CC(=O)NCC(=O)N[C@@H](Cc1ccccc1)C(=O)N1CCC[C@H]1C(=O)N[C@@H](CC(C)C)C(=O)N[C@@H](CCCCN)C(=O)N[C@@H](CCCNC(=N)N)C(=O)N[C@@H](Cc1c[nH]cn1)C(=O)N[C@@H](CC(=O)O)C(=O)NCC(=O)N[C@H](C(=O)N[C@@H](CC(=O)O)C(=O)N[C@@H](CC(=O)O)C(=O)N[C@@H](CC(C)C)C(=O)N[C@@H](CO)C(=O)N[C@@H](CCCCN)C(=O)N[C@H](C(=O)NCC(=O)NCC(=O)N[C@@H](Cc1ccc(O)cc1)C(=O)NCC(=O)N[C@@H](CCCNC(=N)N)C(=O)N[C@@H](CCCCN)C(=O)N[C@@H](CCCCN)C(=O)N[C@@H](CCCNC(=N)N)C(=O)N[C@@H](CCCNC(=N)N)C(=O)N[C@@H](CCC(N)=O)C(=O)N[C@@H](CCCNC(=N)N)C(=O)N[C@@H](CCCNC(=N)N)C(=O)N[C@@H](CCCNC(=N)N)C(N)=O)C(C)C)C(C)C [MKI-TAT] (Ac-GFPLKRHDGVDDLSKVGGYGRKKRRQRRR-NH2)
[1]
  Phospho-tau recognized by the PHF-1 antibody in brain: reduced
  level of MARK4-mediated tau phosphorylation recognized by the pS262-tau antibody in brain: significantly reduced
  total tau level in brain: largely unchanged
5×FAD mouse
  motor behavioral defects (time in zones, average velocity, rearing time, session time, zone entry): rescued
Human MARK4
  MARK4-mediated tau phosphorylation in vitro: inhibited
